For series [1] the following is noted: cited from earlier work.
The test system of the next series is PBMCs. As to the kind of experiment: Relative apoptosis of PBMCs by FACS analysis. The following applies: culture = 0%. The series is classed as cell-based. The text has this: (§1) The peripheral blood lymphocytes (PBLs) out of the PBMCs were selected for the FACS analysis (FIG. 5). A toxicity of the cells induced a shift from viable cells to apoptotic cells (FIG. 6, 7). If the drug or its concentration is very toxic, the cells appear addition-ally in a higher extent necrotic.
DMSO, the solvent of EA and cic, was given to the PBMCs in a ratio of 1:100, as control. The values are related to the culture-control and expressed as mean±standard error of the mean (SEM) taken from 5 separate measurements. In FIG. 6 (A) samples were measured after 24, 48 and 72 h. After 0 h, the time of execution, the relative apoptosis was defined as 0% for all samples. In FIG. 6 (B) the relative apoptosis values for the samples measured after 24, 48 and 72 h.
In general terms: Flow cytometry measures light scatter and fluorescence of single cells or particles in a stream.

Series [2] relates to cell line DHL-4. As to the kind of experiment: Relative viability of cell line DHL-4 by FACS analysis. In kind it is cell-based. The following applies: culture = 100%; for viability at 30 µM: 30 μM EA; for viability at 10 µM: 10 μM cic.
Description: as §1
DMSO, the solvent of EA and cic, was given to the cell line DHL-4 in a ratio of 1:100, as control. The values are related to the culture-control and expressed as mean±standard error of the mean (SEM) taken from 5 separate measurements. In FIG. 9 (A) samples were measured after 24, 48 and 72 h. After 0 h, the time of execution, the relative viability was defined as 100% for all samples. In FIG. 9 (B) the relative viability values for the samples measured after 24, 48 and 72 h.

The test system of series [3] is cell line LAM-53. As to the kind of experiment: Relative apoptosis of cell line LAM-53 by FACS analysis. In kind it is cell-based. The following applies: culture = 0%.
Description: as §1
DMSO, the solvent of EA and cic, was given to the cell line LAM-53 in a ratio of 1:100, as control. The values are related to the culture-control and expressed as mean±standard error of the mean (SEM) taken from 5 separate measurements. In FIG. 8 (A) samples were measured after 24, 48 and 72 h. After 0 h, the time of execution, the relative apoptosis was defined as 0% for all samples. In FIG. 8 (B) the relative apoptosis values for the samples measured after 24, 48 and 72 h.

Series [4] concerns cell line OPM-2. As to the kind of experiment: Relative apoptosis of myeloma cell line OPM-2 by FACS analysis. In kind it is cell-based. As to conditions: culture = 0%.
Description: as §1
DMSO, the solvent of EA and cic, was given to the cell line OPM-2 in a ratio of 1:100, as control. The values are related to the culture-control and expressed as mean±standard error of the mean (SEM) taken from 5 separate measurements. In FIG. 12 (A) samples were measured after 24, 48 and 72 h. After 0 h, the time of execution, the relative apoptosis was defined as 0% for all samples. In FIG. 12 (B) the relative apoptosis values for the samples measured after 24, 48 and 72 h.

Series [5] concerns cell line LAM-53. As to the kind of experiment: Relative viability of cell line LAM-53 by FACS analysis. The series is classed as cell-based. As to conditions: culture = 100%; for viability at 30 µM: 30 μM EA.
Description: as §1
DMSO, the solvent of EA and cic, was given to the cell line LAM-53 in a ratio of 1:100, as control. The values are related to the culture-control and expressed as mean±standard error of the mean (SEM) taken from 5 separate measurements. In FIG. 7 (A) samples were measured after 24, 48 and 72 h. After 0 h, the time of execution, the relative viability was defined as 100% for all samples. In FIG. 7 (B) the relative viability values for the samples measured after 24, 48 and 72 h.

The nature of series [6]: Relative viability of PBMCs by FACS analysis. In kind it is cell-based. The following applies: culture = 100%.
Description: as §1
DMSO, the solvent of EA and cic, was given to the PBMCs in a ratio of 1:100, as control. The values are related to the culture-control and expressed as mean±standard error of the mean (SEM) taken from 5 separate measurements. In FIG. 5 (A) samples were measured after 24, 48 and 72 h. After 0 h, the time of execution, the relative viability was defined as […]) for all samples. In FIG. 5 (B) the relative viability values for the samples measured after 24, 48 and 72 h.

Series [7] relates to cell line Raji. As to the kind of experiment: Relative viability of cell line Raji by FACS analysis. The series is classed as cell-based. The following applies: Homo sapiens, culture = 100%; for viability at 30 µM: 30 μM EA; for viability at 10 µM: 10 μM cic.
Description: as §1
DMSO, the solvent of EA and cic, was given to the cell line Raji in a ratio of 1:100, as control. The values are related to the culture-control and expressed as mean±standard error of the mean (SEM) taken from 5 separate measurements. In FIG. 13 (A) samples were measured after 24, 48 and 72 h. After 0 h, the time of execution, the relative viability was defined as 100% for all samples. In FIG. 13 (B) the relative viability values for the samples measured after 24, 48 and 72 h.

Series [8] deals with cell line OPM-2. As to the kind of experiment: Relative viability of myeloma cell line OPM-2 by FACS analysis. In kind it is cell-based. The following applies: Homo sapiens, culture = 100%; for viability at 30 µM: 30 μM EA; for viability at 10 µM: 10 μM cic.
Description: as §1
DMSO, the solvent of EA and cic, was given to the cell line OPM-2 in a ratio of 1:100, as control. The values are related to the culture-control and expressed as mean±standard error of the mean (SEM) taken from 5 separate measurements. In FIG. 11 (A) samples were measured after 24, 48 and 72 h. After 0 h, the time of execution, the relative viability was defined as 100% for all samples. In FIG. 11 (B) the relative viability values for the samples measured after 24, 48 and 72 h.

The test system of series [9] is cell line DHL-4. As to the kind of experiment: Relative apoptosis of cell line DHL-4 by FACS analysis. In kind it is cell-based. As to conditions: culture = 0%.
Description: as §1
DMSO, the solvent of EA and cic, was given to the cell line DHL-4 in a ratio of 1:100, as control. The values are related to the culture-control and expressed as mean±standard error of the mean (SEM) taken from 5 separate measurements. In FIG. 10 (A) samples were measured after 24, 48 and 72 h. After 0 h, the time of execution, the relative apoptosis was defined as 0% for all samples. In FIG. 10 (B) the relative apoptosis values for the samples measured after 24, 48 and 72 h.

Series [10] relates to cell line Raji. As to the kind of experiment: Relative apoptosis of cell line Raji by FACS analysis. In kind it is cell-based. As to conditions: culture = 0%.
Description: as §1
DMSO, the solvent of EA and cic, was given to the cell line Raji in a ratio of 1:100, as control. The values are related to the culture-control and expressed as mean±standard error of the mean (SEM) taken from 5 separate measurements. In FIG. 14 (A) samples were measured after 24, 48 and 72 h. After 0 h, the time of execution, the relative apoptosis was defined as 0% for all samples. In FIG. 14 (B) the relative apoptosis values for the samples measured after 24, 48 and 72 h.

The conditions of series [11]: per day; cited from earlier work.

As to `Cc1cc(C2CCCCC2)n(O)c(=O)c1` [Ciclopirox, 6-cyclohexyl-1-hydroxy-4-methyl-1,2-dihydropyridin-2-one], in series [1] (methanol), the solubility in methanol entry is recorded as “soluble”.
As to `C=C(CC)C(=O)c1ccc(OCC(=O)O)c(Cl)c1Cl` [EA, 2-[2,3-dichloro-4-(2-methylidenebutanoyl)phenoxy]acetic acid], the relative apoptosis is reported as 1.3% with PBMCs (30 μM EA, 24 h); 3.9% in the series with PBMCs (30 μM EA, 48 h); 7.6% with PBMCs (30 μM EA, 72 h); 0.7% with cell line LAM-53 [3] (30 μM EA, 24 h); 1.5% in the series with cell line LAM-53 [3] (30 μM EA, 48 h); 1.8% in the series on cell line LAM-53 [3] (30 μM EA, 72 h). In addition, the relative apoptosis in the series with cell line OPM-2 [4] (30 μM EA, 24 h) was determined as 2.3%; in the series with cell line OPM-2 [4] (30 μM EA, 48 h) it was 7.5%; in the series on cell line OPM-2 [4] (30 μM EA, 72 h) it was 13.4%; with cell line DHL-4 [9] (30 μM EA, 24 h), 6.7%; in the series with cell line DHL-4 [9] (30 μM EA, 48 h), 2.0%; in the series on cell line DHL-4 [9] (30 μM EA, 72 h), 1.2%. Besides, the relative apoptosis in the series with cell line Raji [10] (30 μM EA, 24 h) came to 2.4%; in the series with cell line Raji [10] (30 μM EA, 48 h), 4.8%; in the series on cell line Raji [10] (30 μM EA, 72 h) it was 9.8%. In addition, the viability (as a rule, the share of living cells, or the viability signal relative to a control) at 30 µM in the series with cell line DHL-4 [2] (24 h) was determined as 91.7%; with cell line DHL-4 [2] (48 h), 96%; in the series on cell line DHL-4 [2] (72 h), 97.6%; in the series with cell line LAM-53 [5] (24 h), 96.7%; in the series with cell line LAM-53 [5] (48 h), 96.2%; in the series with cell line LAM-53 [5] (72 h), 91%. Also, the viability at 30 µM was 95.7% in the series on cell line Raji [7] (24 h); 90.7% with cell line Raji [7] (48 h); 78.9% in the series with cell line Raji [7] (72 h); 96.4% in the series on cell line OPM-2 [8] (24 h); 84.2% in the series on cell line OPM-2 [8] (48 h); 58% with cell line OPM-2 [8] (72 h). For the same compound, in series [1] (e.g. alcohols, chloroform, and benzene), the “solubility in most organic solvents” value was “soluble”. In series [1] (water), the solubility in water result is given as “slightly soluble”. In addition, the viability at 24 h, 30 μM in series [6] (30 μM EA, 24 h) worked out at 98.9%. For the same compound, in series [6] (30 μM EA, 48 h), the viability at 48 h, 30 μM turned out to be 94.9%. Further, the viability at 72 h, 30 μM in series [6] (30 μM EA, 72 h) is 89.5%.
In the case of `Cc1cc(C2CCCCC2)n(O)c(=O)c1` [cic, Ciclopirox olamine], the relative apoptosis in the series on PBMCs (10 μM cic, 24 h) stood at 0.4%; in the series with PBMCs (10 μM cic, 48 h), 1.4%; with PBMCs (10 μM cic, 72 h), 3.3%; in the series on cell line LAM-53 [3] (10 μM cic, 24 h), 12.2%; with cell line LAM-53 [3] (10 μM cic, 48 h), 34.4%; in the series with cell line LAM-53 [3] (10 μM cic, 72 h) it was 51.2%. For the same compound, the relative apoptosis in the series with cell line OPM-2 [4] (10 μM cic, 24 h) amounted to 4.0%; with cell line OPM-2 [4] (10 μM cic, 48 h) it was 15.3%; in the series with cell line OPM-2 [4] (10 μM cic, 72 h) it was 34.8%; with cell line DHL-4 [9] (10 μM cic, 24 h) it was 5.8%; with cell line DHL-4 [9] (10 μM cic, 48 h), 5.0%; with cell line DHL-4 [9] (10 μM cic, 72 h) it was 30.8%. Further, the relative apoptosis is on record as 14.1% in the series on cell line Raji [10] (10 μM cic, 24 h); 31.0% in the series on cell line Raji [10] (10 μM cic, 48 h); 30.0% with cell line Raji [10] (10 μM cic, 72 h). Besides, the viability at 10 µM in the series on cell line DHL-4 [2] (24 h) is 93%; with cell line DHL-4 [2] (48 h) it was 90.3%; in the series with cell line DHL-4 [2] (72 h), 55.9%; in the series with cell line LAM-53 [5] (24 h, 10 μM cic), 76.2%; in the series with cell line LAM-53 [5] (72 h, 10 μM cic) it was 32.4%; in the series on cell line Raji [7] (24 h) it was 83.8%. In addition, the viability at 10 µM in the series with cell line Raji [7] (48 h) came to 45.6%; with cell line Raji [7] (72 h), 21.7%; in the series with cell line OPM-2 [8] (24 h) it was 93.6%; with cell line OPM-2 [8] (48 h), 72.5%; in the series on cell line OPM-2 [8] (72 h), 29.4%. In the series with cell line LAM-53 [5] (10 μM cic, 48 h), this compound registered a relative viability of 52.9%. Further, in [11], the “maximum concentration in human systemic tolerability studies” value was 275 µM. The same compound came in with a viability at 24 h, 10 μM in series [6] (10 μM cic, 24 h) of 99.3%. Besides, the viability at 48 h, 10 μM in series [6] (10 μM cic, 48 h) worked out at 98.3%. For the same compound, the viability at 72 h, 10 μM in series [6] (10 μM cic, 72 h) is 94.4%.

These data come from patent publication US9114117B2, “Compounds effective against cancer” (Ingo Schmidt-Wolf, priority 2009, dated 2015).
